The test has as its system Rattus norvegicus. Nature of the test: Compounds were evaluated by intravenous administration along with 100 ug/kg of PAF in rat. The format is functional.

One compound from ChEMBL document CHEMBL1126203, “Synthesis and structure-activity relationships of a series of novel benzopyran-containing platelet activating factor antagonists” (J Med Chem, 1992) can be followed below.

For `CCOC(=O)COc1cc(C(C)CCCc2ccc(F)cc2)cc2c1C1=C(CCN(CC(=O)NC)C1)C(C)(C)O2` (stereo unspecified), it took a dose of 0.6 mg/kg to reach the 50% effect level (ED50).
